Results as given in ChEMBL document CHEMBL1201862, “PubChem BioAssay data set” (2004).
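Briefly, cells in 96-well plates were exposed to five compound concentrations for 48 h, and endpoints were estimated by linear interpolation. At the GI50, growth is halved.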 The source made the active and inactive calls. Rule as the data show it: active = GI50 up to about 1.1 µM and inactive = higher.

Assays:
Assay in all cases: growth of human tumour cells (NCI), 48 h
NCI-H522 = tested on: NCI-H522
DLD-1 = tested on: DLD-1
SF-539 = tested on: SF-539
NCI-H226 = tested on: NCI-H226
HOP-62 = tested on: HOP-62
CCRF-CEM = tested on: CCRF-CEM
SK-MEL-5 = tested on: SK-MEL-5
SNB-78 = tested on: SNB-78
SK-MEL-28 = tested on: SK-MEL-28
K562 = tested on: K562
NCI/ADR-RES = tested on: NCI/ADR-RES
MCF7 = tested on: MCF7
OVCAR-3 = tested on: OVCAR-3
SK-MEL-2 = tested on: SK-MEL-2
SN12C = tested on: SN12C
HL-60 = tested on: HL-60
BT-549 = tested on: BT-549
ACHN = tested on: ACHN
786-0 = tested on: 786-0
DU-145 = tested on: DU-145

Compound	GI50 (NCI-H522)	GI50 (DLD-1)	GI50 (SF-539)	GI50 (NCI-H226)	GI50 (HOP-62)	GI50 (CCRF-CEM)	GI50 (SK-MEL-5)	GI50 (SNB-78)	GI50 (SK-MEL-28)	GI50 (K562)	GI50 (NCI/ADR-RES)	GI50 (MCF7)	GI50 (OVCAR-3)	GI50 (SK-MEL-2)	GI50 (SN12C)	GI50 (HL-60)	GI50 (BT-549)	GI50 (ACHN)	GI50 (786-0)	GI50 (DU-145)
Cc1ccc(C(=O)Nc2ncn(C3CC(O)C(CO)O3)c(=O)n2)cc1 (stereo unspecified)	> 100 µM (inactive)	> 100 µM (inactive)	> 100 µM (inactive)	> 100 µM (inactive)	> 100 µM (inactive)	> 100 µM (inactive)	> 100 µM (inactive)	> 65.5 µM (inactive)	> 100 µM (inactive)	> 100 µM (inactive)	> 100 µM (inactive)	> 100 µM (inactive)	> 33.3 µM (inactive)	> 100 µM (inactive)	> 100 µM (inactive)					
CCCCCOc1ccc(/C=N\c2ccc(-c3ccc(/N=C\c4ccc(OCCCCC)cc4)c(OC)c3)cc2OC)cc1	> 100 µM (inactive)	> 100 µM (inactive)	> 100 µM (inactive)	> 100 µM (inactive)	> 100 µM (inactive)	> 100 µM (inactive)	> 100 µM (inactive)	> 84.9 µM (inactive)	> 100 µM (inactive)	> 31.6 µM (inactive)	> 100 µM (inactive)	> 100 µM (inactive)	> 66.2 µM (inactive)	> 100 µM (inactive)	> 100 µM (inactive)	> 100 µM (inactive)				
CC(=O)Nc1ccc(/C=C/c2ccc(NC(=O)Nc3ccc(/C=C/c4ccc(NC(C)=O)cc4S(=O)(=O)O)c(S(=O)(=O)O)c3)cc2S(=O)(=O)O)c(S(=O)(=O)O)c1	> 100 µM (inactive)	> 100 µM (inactive)	> 100 µM (inactive)	39.8 µM (inactive)	> 100 µM (inactive)	> 100 µM (inactive)	> 100 µM (inactive)	> 100 µM (inactive)	> 100 µM (inactive)	> 100 µM (inactive)	> 100 µM (inactive)	> 100 µM (inactive)	> 100 µM (inactive)	> 100 µM (inactive)	> 100 µM (inactive)	60.1 µM (inactive)				
COCC(=O)[C@]1(O)Cc2c(O)c3c(c(O)c2[C@@H](OC2CC(N)C(O)C(C)O2)C1)C(=O)c1c(OC)cccc1C3=O (stereo partly specified)	0.0255 µM (active)	0.0532 µM (active)	0.043 µM (active)	0.0401 µM (active)	0.11 µM (active)	0.0153 µM (active)	0.0728 µM (active)	0.278 µM (active)	0.0935 µM (active)	0.0124 µM (active)			0.115 µM (active)	0.121 µM (active)	0.0285 µM (active)	0.0188 µM (active)	0.161 µM (active)	0.0703 µM (active)	0.0373 µM (active)	0.0991 µM (active)
CC[C@@]1(O)C[C@H](OC2CC(N(C)C)C(OC3CC(O)C(OC4CC(O)C(O)C(C)O4)C(C)O3)C(C)O2)c2c(cc3c(c2O)C(=O)c2c(O)ccc(O)c2C3=O)[C@H]1C(=O)OC (stereo partly specified)	0.0343 µM (active)	0.0328 µM (active)	< 0.0214 µM (active)	0.0427 µM (active)	0.06 µM (active)	< 0.0181 µM (active)	0.0194 µM (active)	0.0776 µM (active)	0.0369 µM (active)	0.0109 µM (active)	0.625 µM (active)	0.0156 µM (active)	0.0321 µM (active)	0.0398 µM (active)	0.0148 µM (active)	0.0448 µM (active)				
